According to article PMC11199504, “New hemisynthetic derivatives of sphaeropsidin phytotoxins triggering severe endoplasmic reticulum swelling in cancer cells” (Scientific Reports, 2024):

Experiments:
[1] = set-up: method as in PMID 33016969; conditions: cited from earlier work
NKCC = conditions: cited from earlier work
caspase-3, -8 and 9 = experiment: Caspase-3, -8 and -9 multiplex assay in U373; format: cell-based, human; conditions: U373 cells, until 24 h of treatment
Method: (§1) Cell death induced by compounds 1 and 13 was evaluated by means of the double annexin-V/propidium iodide staining by flow cytometry with the FITC Annexin V apoptosis detection kit from BD Pharmingen (USA) according to the manufacturer’s instructions. Briefly, cells were cultured and treated in 25 cm^2 flasks. At the end of the treatment, all cells (adherent and floating cells) were collected, washed and resuspended at 10^6 cells/mL. 100 µL of the cell suspension were stained with 5 µL of FITC-annexin-V and 5 µL of propidium iodide for 15 min at rt in the dark. 400 µL of buffer were then added before data acquisition of 10,000 events per sample (Gallios, Beckman Coulter, Belgium). Caspase activation is usually evaluated to confirm or not the apoptotic feature of the cell death induced. For this purpose, we used the caspase-3, -8 and 9 multiplex assay (Ab219915, Abcam, UK) following manufacters’ instructions. In this assay, cells were exposed to short peptidic sequences linked to different fluorochromes and that could be specifically cleaved by each of these caspases. This assay thereby allowed simultaneous evaluation of the three caspase activities thanks to the quantification of the three fluorophores released in a SynergyMX plate fluorimeter (Biotek, USA).

[2] = system: 60 cancer cell line panel; experiment: NCI 60 cancer cell line panel testing; format: cell-based
Description: Cell lines are grouped by cancer type [origin]. Determination of the concentration that reduced by 50 % the
Log10 differences are represented by the bars. If a cell line is more sensitive , the bar is on the right , if it is less
sensitive, the bar is on the left. Similar data are represen ted for the 50 % lethal concentration [LC 50] of each
(1 picture or pasted object on this page, not shown here)

[3] = molecular target: chymotrypsin-like activity of the proteasome (Homo sapiens, UniProt P28074); experiment: Cellular proteasomal chymotrypsin-like activity; format: cell-based; conditions: 13 at 1 µM, 6 h of treatment, both SKMEL-28 and U373
Method: The chemotrypsin-like, trypsin-like and caspase-like activities of the proteasome were evaluated in cells with the G8660, G8861 and G8761 kits respectively according to the manufacturer’s instructions (Promega, USA). Briefly, the assays are based on the use of short amino-acid sequences coupled with luciferin and that can be specifically cleaved by each catalytic unit of the proteasomal complex. For this purpose, cells were seeded in 96 well plates 24 h before their treatment with 1 (5 µM), 13 (1 µM) for 6 h or with the positive control MG132 (1 µM) for 24 h. At the end of the treatments, cells were washed three times with PBS and permeabilized with digitonin (0.5 mg/mL; 50 µL per well) under shaking for 10 min. Then, 50 µL of a mixture of the substrate of interest and luciferase were added for 15 min under slow shaking. Luminescence levels quantified with the Active-Glo LR-100 luminometer (DSLabs, Suisse) were normalized according the number of viable cells evaluated in parallel in the same conditions by means of MTT assay.

caspase-8 = experiment: Caspase multiplex assay, caspase-8 in SKMEL-28; format: cell-based, human; conditions: SKMEL-28 cells, 15 h of treatment
Method: as §1

U373 cells = experiment: Annexin-V/propidium iodide staining by flow cytometry; format: cell-based, human; conditions: 24 h of treatment
Method: as §1

caspase-3 = experiment: Caspase multiplex assay, caspase-3 in SKMEL-28; format: cell-based, human; conditions: SKMEL-28 cells, 15 h of treatment
Method: as §1

SKMEL-28 and U373 cells = experiment: Reversibility assay; format: cell-based, human; conditions: after 6 h of treatment, both cell lines
Method: The reversibility of the effects induced by compounds 13 was evaluated through qualitative microscopic observation of the cell cultures (morphology and confluence of the cell culture) over time after having been exposed or not to the compound for 1, 3 or 6 h. Negative control corresponds to untreated cells while positive control corresponds to cells treated with 13 continuously over the whole experiment. Briefly, 6 × 10^4 cells per well were seeded in 6 well plates and incubated for 24 h before their use. Culture medium was then replaced by fresh medium with or without compound 13. After 1, 3 or 6 h of treatment, cells were washed and the culture medium was renewed. Pictures were taken at different time points starting at t = 0 when the treatment was applied to the cells, 6 h, 24 h and 72 h thereafter.

Chain of chymotrypsin-like activity of the proteasome (P28074 60-263): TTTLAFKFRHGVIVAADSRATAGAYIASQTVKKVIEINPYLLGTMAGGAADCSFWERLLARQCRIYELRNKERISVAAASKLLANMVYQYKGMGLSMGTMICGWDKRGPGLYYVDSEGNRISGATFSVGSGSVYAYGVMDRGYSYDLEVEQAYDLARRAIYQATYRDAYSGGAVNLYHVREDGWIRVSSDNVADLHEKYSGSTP

SMILES | stability in physiological medium [1] | concentration inhibiting NKCC activity (NKCC) | caspase activation (caspase-3, -8 and 9) | CC50 ([2]; NCI 60 cancer cell line panel, read-out: global mean LC50) [µM] | GI50 ([2]; NCI, 48 h of culture, read-out: mean GI50 against the 60 cancer cell line panel) [µM] | inhibition at 1 µM [3] [%] | caspase-8 activity (caspase-8) | cells positive to annexin-V (U373 cells) | caspase-3 activity (caspase-3) | reversibility of effects (SKMEL-28 and U373 cells)
C=C[C@]1(C)C=C2C(=O)[C@@]3(O)OC(=O)[C@@]4(CCCC(C)(C)[C@H]34)[C@@]2(O)CC1 [Compound 1, sphaeropsidin A, reference compound] | instability | low micromolar | – | – | – | – | – | – | – | –
CC1(C=CCCCc2ccc3ccc4cccc5ccc2c3c45)C=C2C(=O)C3(O)OC(=O)C4(CCCC(C)(C)C34)C2(O)CC1 (stereo not shown) [Compound 13] | – | – | no caspase activation could be detected | 1.5 | 0.19 | > 60 | markedly increased | more than 60% | markedly increased | irreversible
